Experimental data as given in ChEMBL document CHEMBL3430912, “GSK Tres Cantos Anti-Kinetoplastid Screening (TCAKS) Data”.

Tests used:
[1] = GSK_TCAKS: pIC50 HepG2 human cell line viability assay using luminiscence. […] Seeding density was checked to ensure that new mono-layers were not more than 50% confluent at the time of harvesting. Cell suspension was added to 500 mL of the same medium at a final density of 1.2 * 10^5 cells/mL. This cell suspension was dispensed (25 uL, 3000 cells per well) into 384-well clear-bottom plates using a Multidrop Combi dispenser. Prior to addition of the cell suspension, the screening compounds (250 nL) were pre-dispensed into the plates with an Echo liquid handler. Plates were incubated for 48 h at 37C, 5% CO2. After incubation, plates equilibrated at room temperature for 30 min before proceeding to develop the luminescent signal. The signal developer, CellTiter-Glo Reagent, was allowed to equilibrate at room temperature for 30 min and added to the plates (25uL per well) using a Multidrop Combi dispenser. Plates were left for 10 min at room temperature for stabilization and then read using a ViewLux.; format: toxicity, cell-based
Leishmania donovani [2] = assay: (§1) GSK_TCAKS: pIC50 Leishmania donovani Imaging: Infected Macrophages. Assay plates (384-well) were prepared by adding 250nL of compound to each well. For single shot assay, the final compound concentration was 5 uM. […] Automated image analysis was performed with a script developed on Acapella High Content Imaging and Analysis Software (PerkinElmer). Output: Percent of infected macrophage cells were reported for each well.; format: functional, organism-based, Homo sapiens; details: THP-1
Trypanosoma cruzi [3] = assay: GSK_TCAKS: pIC50 Trypanosoma cruzi viability assay using beta-GAL activity. This assay was run at single shot at 5uM compound concentration per well. The biological reagents consisted of NIH-3T3 host cells and trypomastigotes parasitic cells; both cell types were set to a 3.3 * 10^5 cells/mL dilution in assay DMEM by means of a CASY cell counter device using a 60um capillary. 6 uL of the mixture were dispensed per well (about 1 * 10^3 host-cells and 1 * 10^3 parasites) with a Multidrop Combi dispenser. […] In all wells, the percentage of DMSO never exceeded 0.5%. Plates incubated for four days at 37C, 5% CO2. The substrate used for the assay fluorescence intensity (FLINT) readout was resorufin-beta-D-galactopiranoside (Sigma-Aldrich) at 5uM per well. It was diluted in PBS supplemented with the soft detergent Igepal (Fluka).; format: functional, organism-based, Mus musculus; details: Tulahuen, NIH3T3
Leishmania donovani [4] = assay: as §1, with “THP-1 Host” for “Infected”, “THP-1 cell count” for “Percent of infected macrophage cells”; format: functional, organism-based, Homo sapiens
Trypanosoma cruzi [5] = assay: (§2) GSK_TCAKS: pIC50 H2C9 Imaging: H9c2 Host Cardiomyocytes. […] Cells were then washed once with PBS before infection. T. cruzi trypomastigotes, collected at days 5 to 8 after infection from LLC-MK2 parasite infected cultures, were allowed to swim out for 4h at 37C from a centrifuged pellet (2,500 rpm/10 min/room temperature). Trypomastigotes were then collected and counted in a CASY Cell Counter. Trypomastigotes, in supplemented DMEM, were added to H9c2 cultures in a multiplicity of infection of 1 and incubated for 18 h. Cells were washed once with PBS before incubation of the infected H9c2 monolayer with trypsin (Life-Technologies) to detach cells from the flask. Cells were counted in a CASY Cell Counter using a 150 um capillary and their density set at 5 * 10^4 cells per mL in supplemented assay DMEM. Infected H9c2 were dispensed into 384-well poly-lysine coated assay plates at 50uL per well using a Multidrop Combi dispenser. After seeding them, the plates were incubated at 37C, 5% CO2 for 72h. Cultures were then fixed and stained by addition of 50 uL of a solution containing 8% formaldehyde and 4 uM DRAQ5 DNA dye (BioStatus, UK) per well. […] Five images were collected per well for reliable statistical analysis. Automated image analysis was performed with a script developed on Acapella High Content Imaging and Analysis Software (PerkinElmer). Output: Number of H9c2 Host Cardiomyocytes nuclei to determine drug-related cytotoxicity.; format: functional, organism-based, Rattus norvegicus; details: H9c2, 4 h
Leishmania donovani [6] = assay: as §1, with “Amastigotes/Macrophages.” for “Infected Macrophages.”, “Average number” for “Percent”, “amastigotes per” for “infected”, “cell” for “cells”; format: functional, organism-based, Homo sapiens; details: THP-1
[7] = target: Sterol 14-alpha demethylase (Trypanosoma cruzi (strain CL Brener), UniProt Q7Z1V1); assay: GSK_TCAKS: pIC50 CYP51 from Trypanosoma cruzi.; format: functional
Leishmania donovani [8] = assay: GSK_TCAKS: pIC50 Leishmania donovani viability assay using fluorescence intensity. Assay plates (1536-well) were prepared by adding 30nL per well of compound. For single shot assay, the final compound concentration was 5uM. […] Briefly, eGFP LdBOB axenic amastigotes were harvested, fixed and counted in a CASY cell counter (Roche-Applied Science). A final concentration of 1.5 * 10^5 cells per well were prepared in amastigote media containing 500 U/mL penicillin/streptomycin (Invitrogen) and 6uL was dispensed to each experimental well using a Multidrop Combi dispenser (Thermo Scientific). 6uL of assay media was dispensed to control columns used as reference for 100% compound response. Following incubation for 72 h at 37C, 5% CO2, 2 uL of resazurin was added to each well at a final concentration of 0.5 mM in phosphate buffered saline (PBS) with IGEPAL (Sigma-Aldrich), 0.05% (v/v).; format: functional, organism-based
Trypanosoma cruzi [9] = assay: as §2, with “Trypanosoma cruzi” for “H2C9”, “Amastigotes/Cell.” for “H9c2 Host Cardiomyocytes.”, “number” for “Number”, “amastigotes per cell as infection level measurement.” for “H9c2 Host Cardiomyocytes nuclei to determine drug-related cytotoxicity.”; format: functional, organism-based, Rattus norvegicus; details: H9c2, 4 h
[10] = test system: Trypanosoma brucei brucei; assay: GSK_TCAKS: pIC50 Trypanosoma brucei viability assay using fluorescence intensity. Assay plates (1536-well) were prepared by dispensing 25nL of compound solution per well using an Echo acoustic dispenser (Labcyte).; format: functional, organism-based; details: Lister 427, 2 h
[11] = test system: Trypanosoma brucei brucei; assay: GSK_TCAKS: pIC50 Trypanosoma brucei viability assay using luminiscence. Assay plates (1536-well) were prepared. T. brucei cultures were harvested and counted in a CASY cell counter. A parasite suspension was prepared at a final concentration of 5 * 10^4 cells/mL in complete HMI9 medium and 6uL was dispensed to all wells containing compounds using a Multidrop Combi dispenser. 6uL of HMI9 media with 0.4% DMSO were dispensed to control columns. Plates were incubated for 24 h at 37C, 5% CO2 then tempered for 10 min at room temperature. ATP content was quantified by adding 4 uL of CellTiter-Glo Reagent (Promega) according to the manufacturer's instructions. Luminescence was measured using a ViewLux.; format: functional, organism-based; details: Lister 427, CASY
Trypanosoma cruzi [12] = assay: as §2, with “Trypanosoma cruzi” for “H2C9”, “Infected Cells.” for “H9c2 Host Cardiomyocytes.”, “percentage” for “Number”, “infected cells per well as a second infection marker.” for “H9c2 Host Cardiomyocytes nuclei to determine drug-related cytotoxicity.”; format: functional, organism-based, Rattus norvegicus; details: H9c2, 4 h

Sequence of Sterol 14-alpha demethylase (Q7Z1V1 whole entry): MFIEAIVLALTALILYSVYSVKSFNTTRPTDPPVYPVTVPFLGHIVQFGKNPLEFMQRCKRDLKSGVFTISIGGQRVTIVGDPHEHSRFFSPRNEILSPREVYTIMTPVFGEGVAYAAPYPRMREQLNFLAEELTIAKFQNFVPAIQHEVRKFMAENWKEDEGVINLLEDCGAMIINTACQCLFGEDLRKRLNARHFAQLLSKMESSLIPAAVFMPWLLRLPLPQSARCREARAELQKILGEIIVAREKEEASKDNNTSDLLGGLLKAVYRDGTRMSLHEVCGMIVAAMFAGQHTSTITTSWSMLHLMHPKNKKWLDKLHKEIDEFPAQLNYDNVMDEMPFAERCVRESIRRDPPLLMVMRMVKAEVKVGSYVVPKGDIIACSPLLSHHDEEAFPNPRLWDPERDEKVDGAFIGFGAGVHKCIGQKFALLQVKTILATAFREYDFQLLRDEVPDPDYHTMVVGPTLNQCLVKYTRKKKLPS

Row | SMILES | IC50 at 48 h [1] [µM] | IC50 (Leishmania donovani [2]) [µM] | IC50 (Trypanosoma cruzi [3]) [µM] | IC50 (Leishmania donovani [4]) [µM] | IC50 (Trypanosoma cruzi [5]) [µM] | IC50 (Leishmania donovani [6]) [µM] | IC50 [7] [µM] | IC50 (Leishmania donovani [8]) [µM] | IC50 (Trypanosoma cruzi [9]) [µM] | IC50 [10] [µM] | IC50 [11] [µM] | IC50 (Trypanosoma cruzi [12]) [µM]
1 | CCCc1cc(C(=O)Nc2ncc(-c3cccc(Br)c3)n2C)[nH]n1 | > 100 | 5.01 | 2.51 | 31.6 | > 50.1 | 3.98 | 25.1 | 6.31 | 2.51 | 2.51 | 1.26 | 3.98
2 | Cc1nn2c(NCCCO)c3c(nc2c1-c1cccs1)CCC3 | > 100 | > 50.1 | 15.8 | > 50.1 | > 50.1 | > 50.1 | 25.1 | 2 | 5.01 | 0.316 | 0.398 | 50.1
3 | CC(C)S(=O)(=O)c1ccc(-c2cnc(N)c3cc(-c4ccnc(N)n4)ccc23)cc1 | 15.8 | 1.26 | 0.794 | 2.51 | 0.501 | 0.501 | 15.8 | 2 | 12.6 | 0.2 | 0.251 | 39.8
4 | Cc1cc(Oc2cc(Cl)c(Cl)cc2Cl)n2ncnc2n1 | 31.6 | 15.8 | 5.01 | 10 | 7.94 | 12.6 | > 100 | 15.8 | 10 | 0.794 | 0.398 | 25.1
5 | COc1cnc2ccc(=O)n(CCN3CCC(NC(=O)c4ccc(Cl)cc4)CC3)c2c1 | > 100 | > 50.1 | 0.126 | > 50.1 | 0.631 | 3.98 | 10 | 2 | 0.0794 | 0.0794 | 0.1 | 0.251
6 | CCn1c(-c2nonc2N)nc2c([C@@H](C)O)ncc(O[C@H](CN)c3ccccc3)c21 | 79.4 | 5.01 | 7.94 | 3.16 | 0.631 | 3.16 | 25.1 | 20 | 7.94 | 0.631 | 0.794 | 10
7 | Cc1nn(-c2nc3ccccc3s2)c2c1C(c1ccc(OCC(N)=O)cc1)SCC(=O)N2 (centres undefined) | > 100 | > 50.1 | 5.01 | > 50.1 | > 50.1 | > 50.1 | > 100 | > 50.1 | > 50.1 | 0.02 | 0.0316 | > 50.1
8 | COc1cc(C2SCC(=O)Nc3c2c(C)nn3-c2nc3ccccc3s2)cc(OC)c1O (centres undefined) | > 100 | 0.316 | > 50.1 | > 50.1 | > 50.1 | 0.251 | 5.01 | 6.31 | > 50.1 | 6.31 | > 39.8 | > 50.1
9 | Cc1ccccc1NS(=O)(=O)c1ccc2[nH]cc(C(=O)NC3CCCC(C)C3C)c(=O)c2c1 (centres undefined) | 39.8 | 15.8 | 5.01 | 12.6 | 6.31 | 15.8 | 5.01 | 25.1 | 3.16 | 0.316 | 0.631 | 6.31
10 | COCCn1cnc2cc(NC(=O)C3CCCCC3)cc(C(=O)N3CCc4sccc4C3)c21 | > 100 | > 50.1 | 20 | > 50.1 | > 50.1 | > 50.1 | 50.1 | > 50.1 | 20 | 0.794 | 1 | 31.6
11 | CCC(=O)Nc1ccccc1C(=O)Nc1ccccn1 | > 100 | > 50.1 | > 50.1 | > 50.1 | > 50.1 | > 50.1 | > 100 | > 50.1 | > 50.1 | 0.316 | 0.398 | > 50.1
12 | COc1ncc(-c2ccc3nccc(-c4ccncc4)c3c2)cc1NS(=O)(=O)C1CC1 | > 100 | 1.26 | 0.316 | 1 | 0.794 | 0.316 | 7.94 | 1.26 | 2 | 0.2 | 0.398 | 2.51
13 | Cc1nc(N2CC(C)OC(C)C2)sc1C(=O)Nc1ccc2c(c1)OCO2 (centres undefined) | > 100 | 7.94 | 2 | > 50.1 | > 50.1 | 3.16 | 39.8 | 6.31 | 2.51 | 39.8 | > 39.8 | 3.98
14 | N#Cc1cccc(Cc2cc(Nc3cc(C4CC4)[nH]n3)nc(N3CC[C@H]3C(N)=O)n2)c1 | > 100 | 0.2 | 0.398 | 0.0316 | 0.00398 | 0.0794 | 50.1 | 0.631 | 1 | 0.0398 | 0.0631 | 3.98
15 | COc1ccc(C(=O)Nc2c(C)nn(COc3cccc(C(F)(F)F)c3)c2C)cc1 | > 100 | > 50.1 | 25.1 | 31.6 | > 50.1 | > 50.1 | 12.6 | > 50.1 | 25.1 | 0.794 | 0.794 | 39.8
16 | Cc1cc2nc(N3CC[C@H]3C(N)=O)nc(Nc3cc(C4CC4)[nH]n3)c2s1 | > 100 | 2 | 6.31 | 0.794 | 0.501 | 1.26 | > 100 | 0.794 | 3.98 | 0.0794 | 0.126 | 7.94
17 | COc1ccc(-c2cc(C)no2)cc1S(=O)(=O)Nc1ccc(C)c(C)c1 | > 100 | 2.51 | 5.01 | > 50.1 | 15.8 | 2 | 15.8 | 7.94 | 5.01 | 20 | 20 | 7.94
